These results are taken from patent publication US11401278B2, “Macrocyclic indole derivatives” (The Broad Institute, Inc., priority 2017, dated 2022).

“And” between values parts separate entries of the source, which are not always exact repeats. Equal values may be shown once. Where a name gives a salt, the structure may show the parent alone. Read-outs that look alike come from different tables or passages of the source. Bounds are passed on as bounds.

In data set [1] the target is SUDHL5. In words: Induction of caspase-3/7 activity (Assay 4), SUDHL5. It counts as cell-based. The note with it: caspase-3/7 induction, median. The method in brief:
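DLBCL cells were exposed to compounds for 3 hours at 37 °C, then caspase-3/7 activation was read with Caspase-Glo 3/7 reagent. After subtracting medium-only background, EC50s were derived with fixed C0=1 and the reference compound's maximal induction as plateau.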

The target of data set [2] is BCL-2 (Homo sapiens (Human), UniProt P10415). The experiment in a line: Protein-protein interaction assay BCL-2/Bad BH3 peptide (BCL-2 assay, TR-FRET). In kind it is binding. The note with it: His-BCL-2 / Bad BH3 peptide, median. The procedure, abridged:
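His-BCL-2 (1-211, E. coli) at 1 nM preincubated 10 min at 22 °C with compound (11 concentrations, 0.1 nM-20 μM, duplicates), then 1 nM biotinylated Bad BH3 peptide added. After 1 h at 22 °C plus overnight at 4 °C, TR-FRET 665/620 ratio normalised to DMSO and no-BCL-2 controls, IC50 from 4-parameter fit.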
On the technique in general: TR-FRET usually uses a lanthanide donor and a delayed reading to cut background.

Data set [3] concerns HMC-1-8. In words: Antiproliferation assay (Assay 7), HMC-1-8. In kind it is cell-based. Particulars: CellTiter-Glo, several values per example, read-out: Antiproli HMC-1-8 [M] IC50. The method in brief: (§1)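 CellTiter-Glo luminescence readout; 72 h compound exposure, 37° C, humidified. Day 0 reference plate read at plating for time-zero baseline.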
On the technique in general: ATP-based viability assays read luminescence as a measure of living cells.

Data set [4] has as its system SUDHL5. In words: Antiproliferation assay (Assay 7), SUDHL5. Particulars: CellTiter-Glo, median, read-out: Antiproli SUDHL5 [M] (median) IC50. It counts as cell-based. The procedure, abridged: as §1
Data set [5] deals with SUDHL5. The experiment in a line: Induction of cytotoxicity (Assay 6), SUDHL5. Particulars: read-out: Cytotox SUDHL5 [M] (median) IC50, CellTiter-Glo, 5 hours, SUDHL5.
Experimental: Assay 6 Induction of Cytotoxicity Upon Treatment of Cells with Selected Compounds
Therefore, cytotoxicity assays were run in parallel in SUDHL5 and SUDHL10 cells.
The different cell lines were plated in culture medium (RPMI 1640 [GIBCO #22400-089] supplemented with 10% Fetal Bovine Serum) at a density of 3,300 cells in 30 μl/well in a sterile, solid black, flat bottom, polystyrene, TC-treated 384-well microplate (Corning #3571) using Multidrop Combi Reagent Dispenser. As a control, medium without cells was also added to the plate. Cells were incubated in a humidified incubator at 37° C. overnight. On the next day, the cells were treated with compounds (stock solution, 10 mM in DMSO) using the HP D300 Digital Dispenser in a concentration range of 3.3×10e-5 M (33 μM) to 5×10e-9 M (5 nM) in a single-dot curve with at least 16 dilutions and a DMSO concentration of 0.33%. Rim wells were excluded. The cells were incubated for 5 hours in a humidified incubator at 37° C. After this incubation, 30 μl of CellTiter-Glo® Luminescent Cell Viability reagent (Promega, G7573) was added to each well using the Multidrop Combi Reagent Dispenser, followed by 15 minutes incubation on a shaker at room temperature. Finally, luminescence was read at 0.1 ms, with a gain of 3000 using the PHERAstar FS microplate reader (BMG Labtech).

Sequence of BCL-2 (P10415 other isoform, or with tags, fused parts or gaps): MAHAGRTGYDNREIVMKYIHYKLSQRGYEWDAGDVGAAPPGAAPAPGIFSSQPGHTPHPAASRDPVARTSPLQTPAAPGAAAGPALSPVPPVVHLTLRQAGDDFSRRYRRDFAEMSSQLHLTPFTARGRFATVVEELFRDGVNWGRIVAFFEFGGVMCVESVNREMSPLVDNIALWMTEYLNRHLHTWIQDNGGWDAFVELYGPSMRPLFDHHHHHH

Consider `Cc1c2c(nn1C)CN(C1CC1)S(=O)(=O)CCCn1c(C(=O)O)c(CCCOc3cccc4cc(F)ccc34)c3ccc(Cl)c-2c31` (racemic) [Example 41, (rac)-4-chloro-14-cyclopropyl-7-{3-[(6-fluoro-1-naphthyl)oxy]propyl}-2,3-dimethyl-11,12,14,15-tetrahydro-2H,10H-pyrazolo[3′,4′:4,5][1,2,8]thiadiazacycloundecino[6,7,8-hi]indole-8-carboxylic acid 13,13-dioxide], for which the 50% effective concentration (EC50) (usually the concentration at which the effect is half-maximal) in data set [1] (3 hours) amounted to 820 nM. In addition, the IC50 – broadly, the midpoint of a concentration-inhibition curve – in data set [2] stood at 19000 nM; in data set [3] (72 hours), 3.9e-06 M; in data set [4] (72 hours), 1.2e-06 M; in data set [5] it was 9.7e-07 M.
In data set [1] (Homo sapiens, SU-DHL-5, 3 h), `Cc1c2c(nn1C)C(CCN1CCOCC1)N(C)S(=O)(=O)CCCn1c(C(=O)O)c(CCCOc3cccc4ccccc34)c3cccc-2c31` (racemic) [Example 44, (rac)-2,3,14-trimethyl-15-[2-(rac)-(morpholin-4-yl)ethyl]-7-[3-(1-naphthyloxy)propyl]-11,12,14,15-tetrahydro-2H,10H-pyrazolo[3′,4′:4,5][1,2,8]thiadiazacycloundecino[6,7,8-hi]indole-8-carboxylic acid 13,13-dioxide (Mixture of Stereoisomers)] displayed a concentration for a half-maximal effect (EC50) of 1100 nM. For the same compound, the IC50 in data set [2] is more than 20000 nM; in data set [3] (72 h), 1.2e-05 M; in data set [4] (Homo sapiens, SU-DHL-5, 72 h) it was 9.2e-07 M; in data set [5] (Homo sapiens, SU-DHL-5, 5 h), 1.3e-06 M.
In data set [1] (Homo sapiens, SU-DHL-5, 3 h), `Cc1c2c(nn1C)C(N1CCOCC1)CCN(C)S(=O)(=O)CCCn1c(C(=O)O)c(CCCOc3cccc4cc(F)ccc34)c3ccc(Cl)c-2c31` (racemic) [Example 47, (rac)-15-chloro-1-(3-((6-fluoronaphthalen-1-yl)oxy)propyl)-8,13,14-trimethyl-11-(rac)-morpholino-5,6,9,10,11,13-hexahydro-4H,8H-pyrazolo[3′,4′:6,7][1]thia[2,10]diazacyclotridecino[8,9,10-hi]indole-2-carboxylic acid 7,7-dioxide (Mixture of Stereoisomers)] registered an EC50 of 220 nM. The half-inhibitory concentration (IC50) in data set [2] was more than 20000 nM; in data set [3] (72 h), 8e-06 M; in data set [3] (72 hours) it was 1.2e-05 M; in data set [4] (Homo sapiens, SU-DHL-5, 72 h), 6.3e-07 M; in data set [5] (Homo sapiens, SU-DHL-5, 5 h), 3.6e-07 M.
`Cc1c2c(nn1C)C(CCN1CCOCC1)N(C)S(=O)(=O)CCCn1c(C(=O)O)c(CCCOc3cccc4cc(F)ccc34)c3ccc(Cl)c-2c31` (racemic) [Example 48, (rac)-4-chloro-7-{3-[(6-fluoro-1-naphthyl)oxy]propyl}-2,3,14-trimethyl-15-(rac)-[2-(morpholin-4-yl)ethyl]-11,12,14,15-tetrahydro-2H,10H-pyrazolo[3′,4′:4,5][1,2,8]thiadiazacycloundecino[6,7,8-hi]indole-8-carboxylic acid 13,13-dioxide (Mixture of Stereoisomers)] came in with a concentration giving a half-maximal response (EC50) in data set [1] (3 hours) of 13 nM. For the same compound, the IC50 in data set [2] is more than 20000 nM; in data set [3] (72 hours), 9.8e-07 M and 9.3e-07 M; in data set [4] (Homo sapiens, SU-DHL-5, 72 h), 3.1e-08 M; in data set [5] it was 1.4e-08 M.
In turn, `COc1ccc(CN2Cc3nn(C)c(C)c3-c3c(Cl)ccc4c(CCCOc5cccc6cc(F)ccc56)c(C(=O)O)n(c34)CCCS2(=O)=O)c(OC)c1` (racemic) [Example 49, (rac)-4-chloro-14-(2,4-dimethoxybenzyl)-7-{3-[(6-fluoro-1-naphthyl)oxy]propyl}-2,3-dimethyl-11,12,14,15-tetrahydro-2H,10H-pyrazolo[3′,4′:4,5][1,2,8]thiadiazacycloundecino[6,7,8-hi]indole-8-carboxylic acid 13,13-dioxide] returned an EC50 in data set [1] (Homo sapiens, SU-DHL-5, 3 h) of 210 nM. The IC50 in data set [2] was 20000 nM; in data set [3] (72 h), 7.8e-06 M; in data set [3] (72 hours) it was 5.8e-06 M; in data set [4] (Homo sapiens, SU-DHL-5, 72 h), 8.5e-07 M; in data set [5] (Homo sapiens, SU-DHL-5, 5 h) it was 1.8e-07 M.
`Cc1c2c(nn1C)CNS(=O)(=O)CCCn1c(C(=O)O)c(CCCOc3cccc4cc(F)ccc34)c3ccc(Cl)c-2c31` (racemic) [Example 50, (rac)-4-chloro-7-{3-[(6-fluoro-1-naphthyl)oxy]propyl}-2,3-dimethyl-11,12,14,15-tetrahydro-2H,10H-pyrazolo[3′,4′:4,5][1,2,8]thiadiazacycloundecino[6,7,8-hi]indole-8-carboxylic acid 13,13-dioxide] registered an EC50 in data set [1] (Homo sapiens, SU-DHL-5, 3 h) of 650 nM. Moreover, the IC50 in data set [2] was more than 20000 nM; in data set [3] (72 h), 3e-05 M; in data set [4] (Homo sapiens, SU-DHL-5, 72 h), 2e-06 M; in data set [5] (Homo sapiens, SU-DHL-5, 5 h) it was 1.4e-06 M.
`CCc1c2c(nn1C)C(CCC1CCOCC1)N(C)S(=O)(=O)CCCn1c(C(=O)O)c(CCCOc3cccc4cc(F)ccc34)c3ccc(Cl)c-2c31` (racemic) [Example 59, (rac)-4-chloro-3-ethyl-7-{3-[(6-fluoro-1-naphthyl)oxy]propyl}-2,14-dimethyl-15-[2-(tetrahydro-2H-pyran-4-yl)ethyl]-11,12,14,15-tetrahydro-2H,10H-pyrazolo[3′,4′:4,5][1,2,8]thiadiazacycloundecino[6,7,8-hi]indole-8-carboxylic acid 13,13-dioxide (Racemate 2)]: the midpoint of the response in data set [1] (3 hours), the EC50, lay at 37 nM. The IC50 was found to be 17000 nM in data set [2], 6e-07 M in data set [3] (72 hours), 5.6e-08 M in data set [4] (72 hours) and 5.9e-08 M in data set [5].
Take `CCc1c2c(nn1C)CN(C1CC1)S(=O)(=O)CCCn1c(C(=O)O)c(CCCOc3cccc4cc(F)ccc34)c3ccc(Cl)c-2c31` (single isomer, unassigned; enantiomer 1) [Example 54, (−)-4-chloro-14-cyclopropyl-3-ethyl-7-{3-[(6-fluoronaphthalen-1-yl)oxy]propyl}-2-methyl-13,13-dioxo-10,11,12,13,14,15-hexahydro-2H-13lambda^6-pyrazolo[3′,4′:4,5][1,2,8]thiadiazacycloundecino[6,7,8-hi]indole-8-carboxylic acid N-ethylethanamine Salt (Enantiomer 1)]: the EC50 in data set [1] (3 hours) was found to be 260 nM. In addition, the concentration for half-maximal inhibition (IC50) was 2.2e-06 M and 2.5e-06 M in data set [3] (72 hours); 4.1e-07 M in data set [4] (72 hours); 3.6e-07 M in data set [5].
`Cc1c2c(nn1C)C(CCN1CCOCC1)N(C)S(=O)(=O)CCCn1c(C(=O)O)c(CCCOc3cccc4ccccc34)c3cccc-2c31` (single isomer, unassigned; enantiomer 2) [Example 46, 2,3,14-trimethyl-15-[2-(morpholin-4-yl)ethyl]-7-{3-[(naphthalen-1-yl)oxy]propyl}-13,13-dioxo-10,11,12,13,14,15-hexahydro-2H-13lambda^6-pyrazolo[3′,4′:4,5][1,2,8]thiadiazacycloundecino[6,7,8-hi]indole-8-carboxylic acid N-ethylethanamine Salt (Enantiomer 2)]: the EC50 in data set [1] (3 hours) is 390 nM. Besides, the concentration for half-maximal inhibition (IC50) in data set [3] (72 hours) is 9.4e-06 M and 1.2e-05 M; in data set [4] (72 hours) it was 3e-07 M; in data set [5] it was 5e-07 M.
`CCNCC.CCc1c2c(nn1C)C(CCN1CCOCC1)N(C)S(=O)(=O)CCCn1c(C(=O)O)c(CCCOc3cccc4cc(F)ccc34)c3ccc(Cl)c-2c31` (single isomer, unassigned; enantiomer 2) [Example 76, 4-chloro-3-ethyl-7-{3-[(6-fluoronaphthalen-1-yl)oxy]propyl}-2,14-dimethyl-15-[2-(morpholin-4-yl)ethyl]-13,13-dioxo-10,11,12,13,14,15-hexahydro-2H-13lambda^6-pyrazolo[3′,4′:4,5][1,2,8]thiadiazacycloundecino[6,7,8-hi]indole-8-carboxylic acid-N-ethylethanamine Salt (Enantiomer 2)]: the EC50 in data set [1] (3 hours) was 6.5 nM. Moreover, the IC50 in data set [3] (72 hours) is 3.5e-07 M and 4.1e-07 M; in data set [4] (72 hours) it was 5.7e-09 M; in data set [5], 6.7e-09 M.
